These results are taken from patent US8703224B2, “Method to improve water solubility of Rebaudioside D” (PepsiCo, Inc., priority 2009, dated 2014).

The conditions of data set [1]: cited from earlier work.
Data set [2] in a line: Differential Scanning calorimetry (DSC). Conditions: 40°-300° C., heating at 10° C./min.
The nature of data set [3]: Thermal Gravimetric Analysis (TGA). Type of data set: physicochemical. Conditions: 2 mg sample, 10° C./min. The method, then: In a complementary experiment, commercially available Reb D was examined by Thermal Gravimetric Analysis (TGA). TGA is a type of test that may be performed to determine changes in weight as a function of temperature. The method may be used to determine loss of water, or any other volatiles in a compound as it is heated. A derivative weight loss curve can be used to determine at what temperature weight loss is most apparent. A 2 mg sample was placed into a sample boat on a microgram balance (accurate to +/−1 μg) and heated while monitoring the mass. The temperature was increased at 10° C./min while continuing to monitor the mass and graphing the result as a percentage of the original mass. The results from this analysis are shown in FIG. 2 and indicate mass loss beginning at about 50° C. and continuing to about 104° C. and then remaining stable until reaching approximately 260° C., whereupon a large loss of mass was recorded, which corresponds to the decomposition temperature.

A short description of data set [4]: Oven heating for two hours, mass loss and HPLC check for decomposition. The class given is physicochemical. Conditions: for Net Loss (weight %) / Net Loss: oven, two hours; for Net Loss: 50 g sample. The method, then:
An experiment was performed on four samples (50 g each) of commercially available Reb D. The samples were each heated in an oven for two hours at one of four temperatures: 70°, 80°, 90° and 100° C. The samples were then immediately cooled and weighed to determine any loss in mass. Each sample, including the initial sample, was analyzed using gradient reversed-phase High Performance Liquid Chromatography (HPLC) with Evaporative Light Scattering Detection (ELSD) and Ultra-Violet (UV) detection methods to determine if any significant decomposition occurred.

Data set [5] in a line: Water solubility experiment, anhydrous versus non-anhydrous form, solubility versus temperature. The class given is physicochemical. The settings on record: after cooling to room temperature and sitting on a bench-top overnight.
Method: Equal starting amounts of both substances were placed in equal volumes of water in side-by-side beakers equipped with overhead stirrers and hot plates. As the temperature of the water solution increased and the starting amounts were dissolved, incremental quantities of additional respective sweetener were added.
The nature of data set [6]: Dissolution in water with heating, then cooling to room temperature (stable solution test). The class given is physicochemical.
Method: In at least certain exemplary embodiments, such supersaturated aqueous solution has a stable solution of Reb D at a concentration greater than 500 ppm, e.g., 1500 ppm or 3000 ppm. As used here and in the appended claims, a “stable solution” is defined as a solution prepared and stored according to the methods described here where the Reb D remains in solution for a period of time of at least 24 hours at room temperature without forming a precipitate.
A short description of data set [7]: HPLC (ELSD/UV) analysis after heating at 100° C. for 120 hours. Type of data set: physicochemical. Conditions: after heating 120 hours at 100° C. The method, then:
It was discovered that upon heating commercially available Reb D, believed to be a non-anhydrous form of Reb D (i.e., hydrate), compound in an oven to a temperature of 100° C. for 120 hours, a thermally stable anhydrous Reb D product was obtained. […] The top graph indicates ELSD detection, and the bottom graph indicates UV detection results taken at a wavelength of 210 nm.
Additional HPLC chromatogram analysis was performed using both an anhydrous sample of Reb D (i.e., after the sample had undergone the process of heating for 120 hours at 100° C.) and a sample that had undergone heating for 24 hours. […] A decomposition peak estimated to be in the range of 2% of the total mass was found in the analysis results from the anhydrous Reb D sample, but its structure was not determined.

As to `C=C1C[C@@]23CC[C@H]4[C@@](C)(CCC[C@@]4(C)C(=O)O[C@@H]4O[C@H](CO)[C@@H](O)[C@H](O)[C@H]4O)[C@@H]2CC[C@]1(O[C@@H]1O[C@H](CO)[C@@H](O)[C@H](O[C@@H]2O[C@H](CO)[C@@H](O)[C@H](O)[C@H]2O)[C@H]1O[C@@H]1O[C@H](CO)[C@@H](O)[C@H](O)[C@H]1O)C3` [Reb A, Rebaudioside A], the “solubility in aqueous solution” value in data set [1] (room temperature) is reported as “at least 3000 ppm”.

As for `C=C1C[C@@]23CC[C@H]4[C@@](C)(CCC[C@@]4(C)C(=O)O[C@@H]4O[C@H](CO)[C@@H](O)[C@H](O)[C@H]4O[C@@H]4O[C@H](CO)[C@@H](O)[C@H](O)[C@H]4O)[C@@H]2CC[C@]1(O[C@@H]1O[C@H](CO)[C@@H](O)[C@H](O[C@@H]2O[C@H](CO)[C@@H](O)[C@H](O)[C@H]2O)[C@H]1O[C@@H]1O[C@H](CO)[C@@H](O)[C@H](O)[C@H]1O)C3` [Reb D, Rebaudioside D], the “temperature of apparent decomposition (large endothermic event)” value in data set [2] was “about 260 °C”. Besides, the “behaviour of heated solution upon cooling” value (cooled to room temperature (e.g., 25° C.)) is given as “precipitates back out of solution within a few hours”. The “stable solubility in aqueous solution” value (room temperature) is listed as “no more than 450 ppm”. Moreover, the “decomposition temperature (large loss of mass)” value in data set [3] was “approximately 260 °C”. Also, the “decomposition by HPLC” value in data set [4] (after two hours at 70°, 80°, 90° and 100° C.) is recorded as “little to no decomposition”. Besides, the “Net Loss (weight %)” value worked out at 0.38 weight % in data set [4] (70° C.), 0.48 weight % in data set [4] (80° C.), 0.76 weight % in data set [4] (90° C.) and 1.36 weight % in data set [4] (100° C.). Further, the “Net Loss” value in data set [4] (70° C.) is 0.19 g; in data set [4] (80° C.) it was 0.24 g; in data set [4] (90° C.), 0.38 g; in data set [4] (100° C.) it was 0.68 g. Moreover, in data set [5] (listed as Reb D hydrate), the “appearance of water solution” value is recorded as “full of precipitate”. In addition, the precipitation after cooling result in data set [6] (dissolved in water with heating and allowed to cool) is given as “precipitating out of solution within a number of hours”.

Turning to `C=C1C[C@@]23CC[C@H]4[C@@](C)(CCC[C@@]4(C)C(=O)O[C@@H]4O[C@H](CO)[C@@H](O)[C@H](O)[C@H]4O)[C@@H]2CC[C@]1(O[C@@H]1O[C@H](CO)[C@@H](O)[C@H](O)[C@H]1O[C@@H]1O[C@H](CO)[C@@H](O)[C@H](O)[C@H]1O)C3` [Stevioside], in data set [1] (in words), the solubility in water entry was “only sparingly soluble in water”.

In the case of `C=C1C[C@@]23CC[C@H]4[C@@](C)(CCC[C@@]4(C)C(=O)O[C@@H]4O[C@H](CO)[C@@H](O)[C@H](O)[C@H]4O[C@@H]4O[C@H](CO)[C@@H](O)[C@H](O)[C@H]4O)[C@@H]2CC[C@]1(O[C@@H]1O[C@H](CO)[C@@H](O)[C@H](O[C@@H]2O[C@H](CO)[C@@H](O)[C@H](O)[C@H]2O)[C@H]1O[C@@H]1O[C@H](CO)[C@@H](O)[C@H](O)[C@H]1O)C3` [anhydrous Reb D, Rebaudioside D], the “appearance of water solution” value in data set [5] was “stayed as a clear solution”. Also, in data set [6] (3000 ppm solution after cooling), the “time at room temperature with no precipitating out of solution” value is on record as “at least 24 hours”. The same compound showed a solution concentration in data set [6] (dissolved in water with heating, cooled to room temperature) of 3000 ppm. Further, the “decomposition by HPLC retention values” in data set [7] is “no significant level of decomposition”. In addition, in data set [7] (FIG. 6), the “impurity at the 14.1 minute elution mark” value was “about 5 % of the total mass”. For the same compound, the decomposition peak in data set [7] (FIG. 7) is listed as ~2 % of the total mass.
